From patent US9961899B2, “Nematicidal aqueous suspension concentrate compositions” (Monsanto Technology LLC, priority 2012, dated 2018)

Assays:
Assay type in all cases: physicochemical
[1] = Storage stability of polymorphs (humidity chambers / ambient, XRD)
Description: To determine the storage stability and/or hydrate formation of 3-phenyl-5-(thiophen-2-yl)-1,2,4-oxadiazole Form I material during storage at ambient conditions, samples were monitored in two static humidity chambers. […] Solutions of saturated potassium chloride (84% RH) and sodium chloride (75% RH) salts at ambient temperature were used.

[2] = Grinding analysis of polymorphs (ball mill, XRD); conditions: ball mill 2 minutes at 4800 oscillations per minute
Description: Batches of 3-phenyl-5-(thiophen-2-yl)-1,2,4-oxadiazole polymorphic Forms I and II were ground using a CRESCENT WIG-L-BUG ball mill for 2 minutes at 4800 oscillations per minute (3.2 m/s) in two separate experiments. […] The Form II used in this experiment was obtained by recrystallization from the melt of Form I, as described in Example 14, above, […]

[3] = Mechanical pressure analysis of polymorphs (CARVER press, XRD); conditions: approximately 15,000 psi for approximately 20 seconds
Description: Batches of 3-phenyl-5-(thiophen-2-yl)-1,2,4-oxadiazole polymorphic Forms I and II were placed in a CARVER press and compressed at approximately 15,000 psi for approximately 20 seconds in two separate experiments. XRD analysis was performed on the samples. The resulting XRD pattern matched the starting material in both experiments, as shown in FIGS. 5A and 5B for Forms I and II, respectively. […] The Form II used in this experiment was obtained by recrystallization from the melt of Form I, as described in Example 14, above.

[4] = Estimation of polymorph transition temperature from DSC data; conditions: calculated from DSC thermal data
Description: Polymorphic Forms I and II of 3-phenyl-5-(thiophen-2-yl)-1,2,4-oxadiazole, as well as a 50/50 mixture thereof, were analyzed by DSC at a slow heating rate of 2° C. per minute, with similar sample sizes. […] Form II has a higher melting temperature and a lower enthalpy of fusion. […] FIGS. 9A through 9C show the relevant DSC thermograms for Form I, Form II, and a mixture of Forms I and II, respectively.
The thermal data using the procedure set forth above was used to calculate an approximate value for the transition temperature of conversion of Forms I and II, resulting in an estimated transition temperature value of 102° C.

| Compound | storage stability / hydrate formation (XRD) ([1]; 75 and 84% RH, ambient temperature, 4 weeks) | polymorphic transformation on grinding (XRD) [2] | polymorphic change under mechanical pressure (XRD) [3] | storage stability (XRD) ([1]; scintillation vial, ambient conditions, approximately 6 days) | transition temperature between Forms I and II [4] |
| --- | --- | --- | --- | --- | --- |
| c1ccc(-c2noc(-c3cccs3)n2)cc1 [Form I, 3-phenyl-5-(thiophen-2-yl)-1,2,4-oxadiazole] | does not form a hydrate and appears to be thermodynamically stable over time | no transformation was observed | did not reveal any changes in the polymorphic form | – | – |
| c1ccc(-c2noc(-c3cccs3)n2)cc1 [Form II, 3-phenyl-5-(thiophen-2-yl)-1,2,4-oxadiazole] | – | transformed to Form I | did not reveal any changes in the polymorphic form | showed signs of transformation to Form I | – |
| c1ccc(-c2noc(-c3cccs3)n2)cc1 [Ia-i, 3-phenyl-5-(thiophen-2-yl)-1,2,4-oxadiazole] | – | – | – | – | approximately 102 °C |
